Experimental data reported in paper PMC7395176, “Retromer stabilization results in neuroprotection in a model of Amyotrophic Lateral Sclerosis” (Nature Communications, 2020).

How the values were obtained:
Sortilin = Sortilin fluorescence in MNs of treated G93A mice; type: in vivo; conditions: 10 mg/kg, day 100
From the text: We next asked whether increasing VPS35/26 protein levels is sufficient to increase retromer functionality. CI-MPR is unstable in VPS26-knockout cells, and we observed a substantial reduction of CI-MPR MFI levels in MNs of vehicle-treated G93A mice compared with WT litters (Fig. 6c). […] Sortilin encodes a receptor belonging to the Vps10 family involved in Frontotemporal Dementia (FTD)[45], which shares functional homologies with MPRs and is another retromer cargo[46].
Fluorescence intensity levels of VPS35, VPS26, CI-MPR, Sortilin, CTSD and Ubiquitin were calculated using NHI-Image J software (US National Institutes of Health) according to the following protocol: stacks of confocal images were used to generate the maximal projections using the Leica Application Suite X (2.0.0.14332) software and then postprocessed by NHI-Image J to crop single NeuN^+ MNs from the ventral horn of the spinal cord. We next performed background (calculated on adjacent slices only receiving secondary antibodies) subtraction for each channel, before applying the NHI-Image J mean filter (with radius 2.0 pixels) to calculate mean NeuN fluorescence levels in individual MNs. Using this approach, we established a region of interest (ROI) to gate single MNs. On this ROI, we measured mean fluoresce levels (MFI) of target proteins.

VPS29 = target: T1, VPS29 (Mus musculus, UniProt Q9QZ88); assay: Western blot for VPS29 in treated Neuro2a cells; type: cell-based; conditions: 10 µM, 48 h, WB
T1 construct: endogenous in cells; host or cells: Neuro2a (ATCC CCL-131)
Method: Compound 2a increases VPS26b and VPS29 in Neuro2a […]
a,WBs forVPS26b, VPS29 and β-Tubulin in vehicle- and compound 2a-treated Neuro2a cells(10 μM, 48h, 3x10^5 cells/well).Quantitative analyses of blots (means ± SD) are shown inhistograms (control:n=4 independent wells, 2a: n=5 independent wells examined in one experiment, p<0.0001 for all the comparisons. Two-tailed Student’s test was used to determine the statisticalsignificanceof data, ***p<0.0001
(1 picture or pasted object on this page, not shown here)

[1] = tested on: SOD1^G93A-transfected Neuro2a cells; assay: Golgi morphology (Golgin97) in SOD1G93A-transfected Neuro2a cells; type: cell-based; conditions: 10 µM
From the text: The Golgi apparatus is affected in MNs from ALS patients and in cells overexpressing mutant SOD1 forms[35]–[37]. We transiently transfected Neuro2a cells with plasmids encoding SOD1^G93A before treatment with compound 2a. […] We next determined the viability of Neuro2a cells transfected with SOD1^G93A and exposed to compound 2a using a colorimetric assay. Controls cells received LacZ plasmids. […] We observed a slight, but not significant, reduction of cell viability in […] Neuro2a cells (Fig. 3b). […] The increased cell viability provided by compound 2a could result from unknown, nonspecific off-target effects. Therefore, we used plasmids encoding VPS35 to increase/stabilize the retromer complex. […] However, this phenotype was reverted co-transfecting VPS35 and SOD1^G93A plasmids (Fig. 3c).
Golgi morphology was assessed in control or in Neuro2a cells receiving G93A plasmids with or without compound 2a (10 µM) as well as in GFP-transfected cells as additional control. We used Golgin97 immunofluorescence to label trans-Golgi network membranes. We classified Golgi morphology as follow: normal (polarized network), intermediate (partially fragmented) or fragmented (severely fragmented with Golgi stacks dispersed in the cytoplasm throughout). […] Golgi subclasses were expressed as a percent of the total number of Golgi scored for each experimental condition.

## NC(N)=N/N=C/c1cccc(/C=N/N=C(N)N)c1 [compound 2a, phenyl-1,3-bis-guanylhydrazone]
Sortilin
  Sortilin MFI levels in MNs: significantly increased
VPS29
  VPS29 protein levels: significantly increased
[1]
  trans-Golgi fragmentation: significantly reverted this phenotype
